The source of these data is PMC6556870 (European Journal of Pharmaceutical Sciences, 2019).

The term Vz denotes the apparent volume that relates the amount in the body to the concentration in plasma or blood. A word on the Cmax: it is the highest concentration seen after dosing. As usually defined, the t½ is the time in which the quantity being followed falls by half. A high value points to slow loss. In general, AUC(0-inf) refers to the area under the concentration-time curve extrapolated to infinity. The low end stands for less exposure, the high end for more exposure. As usually defined, the AUC(0-t) is the area under the concentration-time curve up to a stated or last time point. High values mean high exposure, low ones low exposure. A word on the Vd: it is a proportionality between amount in the body and measured concentration, not a real space. In general, clearance refers to the rate of elimination divided by the concentration. A low value points to a low capacity for elimination. What is called half-life is the time in which the quantity being followed falls by half. A low value points to fast loss.

The nature of one data set: in vivo. The following applies: rat, iv. How it is done: (§1) Fifteen male Han Wistar rats were obtained from Charles River Laboratories, Margate, UK. Animals were all in the target weight range of 163 to 215 g at dosing. Diet was removed at the end of the working day prior to each dose occasion, and returned 4 h after dosing.
(§2) Each animal received a single administration (Table 2). PO doses were administered by gavage at a nominal dose volume of 5 ml/kg. IV doses were administered via a lateral tail vein, at a nominal dose volume of 2 ml/kg, as a bolus injection. Body weights were recorded the day after arrival and before dose administration and used for calculation of doses. Samples of blood (nominally 150 μl) were collected from the jugular vein of each animal. For PO dosing this was done at 0.25, 0.5, 1, 2, 4, 6, 8 and 24 h post dose. For IV dosing this was at 0.016, 0.083, 0.5, 1, 2, 4, 8 and 24 h post dose. The actual blood collection time was used in the subsequent PK data analysis. Blood was collected into tubes containing the K2EDTA anticoagulant and stored at room temperature. Blood was centrifuged (1500g, 10 min, 4 °C) to produce plasma for analysis and residual blood cells were discarded.
Transfer of a 10 μl aliquot into a clean 2 ml […] collection plate • 2. Addition of 25 μl I-B (500 ng/ml). Addition of 25 μl methanol to all blanks • 3. Vortex mix plate (ca. 1 min) • 4. Addition of 80 μl methanol to all wells • 5. Vortex mix plate (ca. 2 min) • 6. Centrifuge 2000g plate for 10 min at room temperature • 7. Transfer 40 μl of supernatant to a clean 1.2 ml 96-well collection plate • 8. Dilute with 160 μl 10 mM of ammonium acetate:ammonium hydroxide (100:0.5 v/v) solution • 9. Vortex mix plate (ca. 2 min) • 10. Complete analysis by LC/MS-MS.

The subject of another data set is Male Han Wistar rats. As to the kind of experiment: Clinical signs / tolerability after single IV or PO administration. How it is done: as §1, §2
The following results were calculated for each group.

Another data set concerns humans. The arrangement: method as in Knip et al., 2000. The following applies: human adults, orally; ref Knip et al., 2000; cited from earlier work.
The next data set concerns rats. The following applies: rat, in vivo, cited from earlier work.

In the case of `[2H]c1cc([2H])c(C(N)=O)cn1` [d2-NA, 4,6-d2-Nicotinamide], the “time by which agent is completely cleared / plasma level returns to baseline” value in the data set “in vivo” is at most 24 h. Moreover, in “in vivo” (20 mg/kg), the C0 is 28,700 ng/ml, the Cl is 0.586 L/h/kg and the volume of distribution (Vz) was found to be 0.691 L/kg. Further, in the data set “in vivo” (60 mg/kg), the “AUC(0–t)” value is recorded as 196,000 h·ng/ml, the “AUC(0–∞)” value is listed as 197,000 h·ng/ml, the C0 is 82,700 ng/ml and the Cl stood at 0.307 L/h/kg. Besides, in “in vivo” (60 mg/kg), the Cmax is recorded as 79,400 ng/ml, the Vz stood at 0.963 L/kg and the t½ stood at 2.23 h. Besides, in the data set “in vivo” (120 mg/kg), the C0 was 172,000 ng/ml, the Cl was 0.262 L/h/kg and the Vz was 0.877 L/kg. Moreover, in the data set with Male Han Wistar rats (regardless of route of administration (IV, PO), 20, 80 and 120 mg/kg, rat), the tolerability result is on record as “well tolerated”.
For `NC(=O)c1cccnc1` [NA, Nicotinamide, reference compound], the “time by which agent is completely cleared / plasma level returns to baseline” value in “in vivo” (male, Han Wistar) is on record as at most 24 h. Further, in the data set “in vivo” (male, Han Wistar, 120 mg/kg), the AUC(0-inf) worked out at 774 µg·h/mL, the AUC(0-t) worked out at 573 µg·h/mL, the C0 came out at 178 µg/mL and the highest level (Cmax) was 168 µg/mL. In “in vivo” (male, Han Wistar, 120 mg/kg), this molecule gave a Vd of 0.911 L/kg and a clearance of 0.163 L/h/kg. This molecule gave a half-life in “in vivo” (male, Han Wistar, 120 mg/kg, t½) of 4 h. The “adult dose at which NA is a safe therapy” value in the data set with humans is recorded as “up to 10 g/day”. In addition, the “clinical signs associated with administration” value in the data set with Male Han Wistar rats (IV or PO, doses up to 120 mg/kg, fifteen male rats) was “No clinical signs”. The “safe dose in rats, IP injection” value in the data set on rats (ip) was 1000 mg/kg. Besides, in the data set with rats (sc), the “safe dose in rats, subcutaneous injection” value is 750 mg/kg.
